Test results as given in patent publication US20170240556A1, “BIFLUORODIOXALANE-AMINO-BENZIMIDAZOLE KINASE INHIBITORS FOR THE TREATMENT OF CANCER, AUTOIMMUNEINFLAMMATION AND CNS DISORDERS” (4SC DISCOVERY GMBH, priority 2012, published 2017).

Tests used:
[1] = biological target: Casein kinase 1 epsilon (CSKN1E) (Homo sapiens, UniProt P49674); test: Casein kinase assay, CK1 epsilon; format: biochemical; conditions: recombinant CSKN1E 30 nM, ATP 10 μM
Description: The recombinant protein Casein kinase 1 delta (CSKN1D) was added to the substrate solution in a concentration of 5 nM and gently mixed. Dilution series in of compounds of the present invention in DMSO were added to the reaction mixture, followed after 20 min by addition of a mixture of ATP and ^33P-ATP (specific activity 0.01 μCi/μl final) to a final concentration of 10 μM. Reactions were carried out at 25° C. for 120 min, followed by spotting the reactions onto P81 ion exchange filter paper. Unbound phosphate was removed by washing of the filters in 0.75% phosphoric acid. […] IC50 values and curve fits were obtained using the program Prism® (Graph Pad Software).
The above assay was also used to determine the inhibitory capacity of the compounds of the present invention on Casein Kinase 1 epsilon, wherein instead of CSKN1D, recombinant protein Casein kinase 1 epsilon (CSKN1E) was added to the substrate solution in a concentration of 30 nM and gently mixed.

[2] = biological target: Casein kinase 1 delta (CSKN1D) (Homo sapiens, UniProt P48730); test: Casein kinase assay, CK1 delta; format: biochemical; conditions: recombinant CSKN1D 5 nM, ATP 10 μM
Sequence of Casein kinase 1 delta (CSKN1D) (P48730 whole entry): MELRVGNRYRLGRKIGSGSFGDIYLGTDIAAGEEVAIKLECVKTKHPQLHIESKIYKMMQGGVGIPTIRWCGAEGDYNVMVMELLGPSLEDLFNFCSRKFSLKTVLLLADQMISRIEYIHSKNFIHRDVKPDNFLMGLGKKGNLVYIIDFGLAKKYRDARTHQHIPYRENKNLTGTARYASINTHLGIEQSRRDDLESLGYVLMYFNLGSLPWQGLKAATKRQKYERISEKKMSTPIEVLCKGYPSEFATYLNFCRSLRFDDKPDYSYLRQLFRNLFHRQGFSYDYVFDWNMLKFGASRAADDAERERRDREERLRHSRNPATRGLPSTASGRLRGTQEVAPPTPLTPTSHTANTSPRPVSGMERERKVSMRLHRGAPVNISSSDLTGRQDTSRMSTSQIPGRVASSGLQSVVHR

Sequence of Casein kinase 1 epsilon (CSKN1E) (P49674 whole entry): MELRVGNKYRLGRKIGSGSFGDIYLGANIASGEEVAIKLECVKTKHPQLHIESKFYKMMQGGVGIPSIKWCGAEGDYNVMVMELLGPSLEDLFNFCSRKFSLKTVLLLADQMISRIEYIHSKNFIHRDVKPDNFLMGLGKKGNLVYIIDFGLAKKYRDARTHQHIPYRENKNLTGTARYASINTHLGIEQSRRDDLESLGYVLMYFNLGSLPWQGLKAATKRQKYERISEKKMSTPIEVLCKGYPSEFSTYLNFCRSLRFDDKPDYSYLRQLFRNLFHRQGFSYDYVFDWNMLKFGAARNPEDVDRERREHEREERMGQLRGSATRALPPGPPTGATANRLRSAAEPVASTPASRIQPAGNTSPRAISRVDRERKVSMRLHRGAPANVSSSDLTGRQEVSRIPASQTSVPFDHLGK

IC50 [1] | IC50 [2] | SMILES
200 to 1000 nM | < 200 nM | O=C(Nc1nc2cc3c(cc2[nH]1)OC(F)(F)O3)c1csc2ccccc12 [Compound 31, N-(2,2-difluoro-5H-[1,3]dioxolo[4′,5′:4,5]benzo[1,2-d]imidazol-6-yl)benzo[b]thiophene-3-carboxamide]
< 200 nM | 200 to 1000 nM | O=C(Nc1nc2cc3c(cc2[nH]1)OC(F)(F)O3)c1ccoc1 [Compound 32, N-(2,2-difluoro-5H-[1,3]dioxolo[4′,5′:4,5]benzo[1,2-d]imidazol-6-yl)furan-3-carboxamide]
200 to 1000 nM | < 200 nM | Cc1occc1C(=O)Nc1nc2cc3c(cc2[nH]1)OC(F)(F)O3 [Compound 33, N-(2,2-difluoro-5H-[1,3]dioxolo[4′,5′:4,5]benzo[1,2-d]imidazol-6-yl)-2-methylfuran-3-carboxamide]
> 1000 nM | > 1000 nM | Cc1cc(C(=O)Nc2nc3cc4c(cc3[nH]2)OC(F)(F)O4)c(C)o1 [Compound 34, N-(2,2-difluoro-5H-[1,3]dioxolo[4′,5′:4,5]benzo[1,2-d]imidazol-6-yl)-2,5-dimethylfuran-3-carboxamide]
> 1000 nM | 200 to 1000 nM | O=C(Nc1nc2cc3c(cc2[nH]1)OC(F)(F)O3)c1cocn1 [Compound 35, N-(2,2-difluoro-5H-[1,3]dioxolo[4′,5′:4,5]benzo[1,2-d]imidazol-6-yl)-oxazole-4-carboxamide]
> 1000 nM | 200 to 1000 nM | O=C(Nc1nc2cc3c(cc2[nH]1)OC(F)(F)O3)c1nnn(-c2cccc(F)c2)c1C(F)(F)F [Compound 36, N-(2,2-difluoro-5H-[1,3]dioxolo[4′,5′:4,5]benzo[1,2-d]imidazol-6-yl)-1-(3-fluorophenyl)-5-(trifluoromethyl)-1H-1,2,3-triazole-4-carboxamide]
200 to 1000 nM | < 200 nM | O=C(Nc1nc2cc3c(cc2[nH]1)OC(F)(F)O3)c1csc(N2CCOCC2)n1 [Compound 37, N-(2,2-difluoro-5H-[1,3]dioxolo[4′,5′:4,5]benzo[1,2-d]imidazol-6-yl)-2-morpholinothiazole-4-carboxamide]
200 to 1000 nM | < 200 nM | O=C(Nc1nc2cc3c(cc2[nH]1)OC(F)(F)O3)c1csc(-c2ccc3c(c2)CCO3)c1 [Compound 38, N-(2,2-difluoro-5H-[1,3]dioxolo[4′,5′:4,5]benzo[1,2-d]imidazol-6-yl)-5-(2,3-dihydrobenzofuran-5-yl)thiophene-3-carboxamide]
200 to 1000 nM | > 1000 nM | O=C(Nc1nc2cc3c(cc2[nH]1)OC(F)(F)O3)c1csc(-c2ccc3c(c2)OCO3)n1 [Compound 39, 2-(benzo[d][1,3]dioxol-5-yl)-N-(2,2-difluoro-5H-[1,3]dioxolo[4′,5′:4,5]benzo[1,2-d]imidazol-6-yl)thiazole-4-carboxamide]
> 1000 nM | > 1000 nM | O=C(Nc1nc2cc3c(cc2[nH]1)OC(F)(F)O3)c1coc(-c2ccc3c(c2)CCO3)n1 [Compound 40, N-(2,2-difluoro-5H-[1,3]dioxolo[4′,5′:4,5]benzo[1,2-d]imidazol-6-yl)-2-(2,3-dihydrobenzofuan-5-yl)oxazole-4-carboxamide]
< 200 nM | < 200 nM | O=C(Nc1nc2cc3c(cc2[nH]1)OC(F)(F)O3)c1cccc(Cl)c1 [Compound 41, 3-chloro-N-(2,2-difluoro-5H-[1,3]dioxolo[4′,5′:4,5]benzo[1,2-d]imidazol-6-yl)benzamide]
> 1000 nM | > 1000 nM | Cc1nnsc1C(=O)Nc1nc2cc3c(cc2[nH]1)OC(F)(F)O3 [Compound 42, N-(2,2-difluoro-5H-[1,3]dioxolo[4′,5′:4,5]benzo[1,2-d]imidazol-6-yl)-4-methyl-1,2,3-thiadiazole-5-carboxamide]
200 to 1000 nM | 200 to 1000 nM | O=C(Nc1nc2cc3c(cc2[nH]1)OC(F)(F)O3)c1ccc(Cl)cc1Cl [Compound 43, 2,4-dichloro-N-(2,2-difluoro-5H-[1,3]dioxolo[4′,5′:4,5]benzo[1,2-d]imidazol-6-yl)benzamide]
200 to 1000 nM | 200 to 1000 nM | O=C(Nc1nc2cc3c(cc2[nH]1)OC(F)(F)O3)c1cscn1 [Compound 44, N-(2,2-difluoro-5H-[1,3]dioxolo[4′,5′:4,5]benzo[1,2-d]imidazol-6-yl)thiazole-4-carboxamide]
200 to 1000 nM | 200 to 1000 nM | O=C(Nc1nc2cc3c(cc2[nH]1)OC(F)(F)O3)c1cccs1 [Compound 45, N-(2,2-difluoro-5H-[1,3]dioxolo[4′,5′:4,5]benzo[1,2-d]imidazol-6-yl)thiophene-2-carboxamide]
200 to 1000 nM | 200 to 1000 nM | COc1ccc(C(=O)Nc2nc3cc4c(cc3[nH]2)OC(F)(F)O4)cc1 [Compound 46, N-(2,2-difluoro-5H-[1,3]dioxolo[4′,5′:4,5]benzo[1,2-d]imidazol-6-yl)-4-methoxybenzamide]

IC50 [1] | IC50 [2] | SMILES
> 1000 nM | 200 to 1000 nM | O=C(Nc1nc2cc3c(cc2[nH]1)OC(F)(F)O3)c1ccccc1OC(F)(F)F [Compound 47, N-(2,2-difluoro-5H-[1,3]dioxolo[4′,5′:4,5]benzo[1,2-d]imidazol-6-yl)-2-(trifluoromethoxy)benzamide]
200 to 1000 nM | < 200 nM | O=C(Nc1nc2cc3c(cc2[nH]1)OC(F)(F)O3)c1cnc(NC(=O)c2ccccc2OC(F)(F)F)o1 [Compound 48, N-(2,2-difluoro-5H-[1,3]dioxolo[4′,5′:4,5]benzo[1,2-d]imidazol-6-yl)-2-(2-(trifluoromethoxy)benzamido)oxazole-5-carboxamide]
< 200 nM | < 200 nM | O=C(Nc1nc2cc3c(cc2[nH]1)OC(F)(F)O3)c1ccccc1 [Compound 49, N-(2,2-difluoro-5H-[1,3]dioxolo[4′,5′:4,5]benzo[1,2-d]imidazol-6-yl)benzamide]
200 to 1000 nM | < 200 nM | O=C(Nc1nc2cc3c(cc2[nH]1)OC(F)(F)O3)c1nc(NC(=O)c2ccc(Cl)cc2Cl)n[nH]1 [Compound 51, 3-(2,4-dichlorobenzamido)-N-(2,2-difluoro-5H-[1,3]dioxolo[4′,5′:4,5]benzo[1,2-d]imidazol-6-yl)-1H-1,2,4-triazole-5-carboxamide]
200 to 1000 nM | < 200 nM | O=C(Nc1nc2cc3c(cc2[nH]1)OC(F)(F)O3)c1nc(NC(=O)c2ccccc2OC(F)(F)F)n[nH]1 [Compound 52, N-(2,2-difluoro-5H-[1,3]dioxolo[4′,5′:4,5]benzo[1,2-d]imidazol-6-yl)-3-(2-(trifluoromethoxy)benzamido)-1H-1,2,4-triazole-5-carboxamide]
> 1000 nM | 200 to 1000 nM | O=C(Nc1nc2cc3c(cc2[nH]1)OC(F)(F)O3)c1c(F)cccc1F [Compound 54, N-(2,2-difluoro-5H-[1,3]dioxolo[4′,5′:4,5]benzo[1,2-d]imidazol-6-yl)-2,6-difluorobenzamide]
200 to 1000 nM | 200 to 1000 nM | O=C(Nc1nc2cc3c(cc2[nH]1)OC(F)(F)O3)c1csc(Br)n1 [Compound 55, 2-bromo-N-(2,2-difluoro-5H-[1,3]dioxolo[4′,5′:4,5]benzo[1,2-d]imidazol-6-yl)thiazole-4-carboxamide]
< 200 nM | < 200 nM | O=C(Nc1nc(C(=O)Nc2nc3cc4c(cc3[nH]2)OC(F)(F)O4)ns1)c1cccc(Cl)c1 [Compound 57]
> 1000 nM | > 1000 nM | O=C(Nc1n[nH]c(C(=O)Nc2nc3cc4c(cc3[nH]2)OC(F)(F)O4)n1)c1ccc([N+](=O)[O-])cc1 [Compound 61, N-(2,2-difluoro-5H-[1,3]dioxolo[4′,5′:4,5]benzo[1,2-d]imidazol-6-yl)-3-(4-nitrobenzamido)-1H-1,2,4-triazole-5-carboxamide]
> 1000 nM | 200 to 1000 nM | Cc1ccccc1C(=O)Nc1nc2cc3c(cc2[nH]1)OC(F)(F)O3 [Compound 68, N-(2,2-difluoro-5H-[1,3]dioxolo[4′,5′:4,5]benzo[1,2-d]imidazol-6-yl)-2-methylbenzamide]
200 to 1000 nM | < 200 nM | COc1ccc(C(=O)Nc2nc(C(=O)Nc3nc4cc5c(cc4[nH]3)OC(F)(F)O5)cs2)cc1 [Compound 69, N-(2,2-difluoro-5H-[1,3]dioxolo[4′,5′:4,5]benzo[1,2-d]imidazol-6-yl)-2-(4-methoxybenzamido)thiazole-4-carboxamide]
200 to 1000 nM | 200 to 1000 nM | Nc1sccc1C(=O)Nc1nc2cc3c(cc2[nH]1)OC(F)(F)O3 [Compound 79, 2-amino-N-(2,2-difluoro-5H-[1,3]dioxolo[4′,5′:4,5]benzo[1,2-d]imidazol-6-yl)thiophene-3-carboxamide]
< 200 nM | < 200 nM | NS(=O)(=O)c1cc(C(=O)Nc2nc3cc4c(cc3[nH]2)OC(F)(F)O4)cs1 [Compound 83, N-(2,2-difluoro-5H-[1,3]dioxolo[4′,5′:4,5]benzo[1,2-d]imidazol-6-yl)-5-sulfamoylthiophene-3-carboxamide]
> 1000 nM | > 1000 nM | O=C(Nc1nc2cc3c(cc2[nH]1)OC(F)(F)O3)c1ncn[nH]1 [Compound 84, N-(2,2-difluoro-5H-[1,3]dioxolo[4′,5′:4,5]benzo[1,2-d]imidazol-6-yl)-1H-1,2,4-triazole-3-carboxamide]
200 to 1000 nM | 200 to 1000 nM | CS(=O)(=O)c1ccc(C(=O)Nc2nc3cc4c(cc3[nH]2)OC(F)(F)O4)s1 [Compound 85, N-(2,2-difluoro-5H-[1,3]dioxolo[4′,5′:4,5]benzo[1,2-d]imidazol-6-yl)-5-(methylsulfonyl)thiophene-2-carboxamide]
